{
  "source": "patent US20150148234A1",
  "about": "“HERBICIDE-RESISTANT SUNFLOWER PLANTS WITH MULTIPLE HERBICIDE RESISTANT ALLELES OF AHASL1 AND METHODS OF USE” (NIDERA S.A., priority 2013, published 2015)",
  "assay_in_all_cases": "imazapyr whole plant greenhouse test (Example 2)",
  "type_in_all_cases": "in vivo",
  "key": {"[1]": {"system": "sunflower genotypes carrying A122T (mean of H2, L3, L4)", "conditions": "for Phytotoxicity Index (0-9) 14 days after treatment / biomass accumulation 14 days after treatment, % of untreated / plant height 14 days after treatment, % of untreated: A122T Mean; for height reduction: of the untreated controls", "procedure": "(§1) Seeds were sown in Petri dishes and, after germination, plantlets were transplanted to pots of 10 cm of diameter in a potting media consisting of equal parts of vermiculite, soil and sand. Plants were grown in a greenhouse under natural light conditions supplemented with 400 W sodium halide lamps to provide a 16 hr daylength. Day/night temperatures were 25 and 20 ° C., respectively. At the V2-V4 stage (Schneiter & Miller (1981) Crop Sci. 21:901-903) 10 plants of each genotype were randomly assigned to each treatment consisting of eight imazapyr doses (0, 40, 80, 160, 240, 320, 400 and 480 g ai/ha, corresponding to untreated, 0.5×, 1×, 2×, 3×, 4×, 5× and 6×, respectively), and a zero-time biomass determination. Experiment was arranged as a randomized block design with a full factorial (sunflower line×treatment) arrangement of treatments and 10 replications.\n(§2) On the day of herbicide application ten plants of each genotype were cut at the cotyledonal node and dried at 60° C. for 48 hrs for zero-time dried weight determination.\n(§3) The remaining plants were maintained for 14 days after imazapyr treatment (DAT) and their height, Phytotoxicity Index (PI) and above ground dry biomass were determined Height was determined as the distance between the cotyledonal node and the apex of each plant. Above ground biomass data from each line were converted to biomass accumulation after application by subtracting the appropriate average zero- time biomass from each sample. Dry biomass data were converted to percentages of the untreated control plants within each line to allow direct comparisons between groups."}, "[2]": {"system": "sunflower hybrid H1 (L1 × L2), A205V", "procedure": "as §1, §2, §3"}, "sunflower line L2, A205V": {"system": "sunflower line L2, A205V", "procedure": "as §1, §2, §3"}},
  "note": "Marks after values point to notes of the source that are not given here.",
  "data": [
    {"smiles": "CC(C)C1(C)N=C(c2ncccc2C(=O)O)NC1=O", "note": "(stereo not shown) [imazapyr]", "values": [
      {"measurement": "Phytotoxicity Index (0-9) 14 days after treatment", "setting": "[1]; dose 0.5 (0.5x, 40 g ai/ha)", "value": 0.3},
      {"measurement": "biomass accumulation 14 days after treatment, % of untreated", "setting": "[1]; dose 0.5 (0.5x, 40 g ai/ha)", "value": 98.9, "unit": "%"},
      {"measurement": "plant height 14 days after treatment, % of untreated", "setting": "[1]; dose 0.5 (0.5x, 40 g ai/ha)", "value": 99.9, "unit": "%"},
      {"measurement": "Phytotoxicity Index (0-9) 14 days after treatment", "setting": "[1]; dose 1 (1x, 80 g ai/ha)", "value": 0.3},
      {"measurement": "biomass accumulation 14 days after treatment, % of untreated", "setting": "[1]; dose 1 (1x, 80 g ai/ha)", "value": "96.7* %"},
      {"measurement": "plant height 14 days after treatment, % of untreated", "setting": "[1]; dose 1 (1x, 80 g ai/ha)", "value": 99.5, "unit": "%"},
      {"measurement": "Phytotoxicity Index (0-9) 14 days after treatment", "setting": "[1]; dose 2 (2x, 160 g ai/ha)", "value": 0.3},
      {"measurement": "biomass accumulation 14 days after treatment, % of untreated", "setting": "[1]; dose 2 (2x, 160 g ai/ha)", "value": "92.2** %"},
      {"measurement": "plant height 14 days after treatment, % of untreated", "setting": "[1]; dose 2 (2x, 160 g ai/ha)", "value": 98.0, "unit": "%"},
      {"measurement": "Phytotoxicity Index (0-9) 14 days after treatment", "setting": "[1]; dose 3 (3x, 240 g ai/ha)", "value": 0.3},
      {"measurement": "biomass accumulation 14 days after treatment, % of untreated", "setting": "[1]; dose 3 (3x, 240 g ai/ha)", "value": "90.0** %"},
      {"measurement": "plant height 14 days after treatment, % of untreated", "setting": "[1]; dose 3 (3x, 240 g ai/ha)", "value": "95.7* %"},
      {"measurement": "Phytotoxicity Index (0-9) 14 days after treatment", "setting": "[1]; dose 4 (4x, 320 g ai/ha)", "value": 0.5},
      {"measurement": "biomass accumulation 14 days after treatment, % of untreated", "setting": "[1]; dose 4 (4x, 320 g ai/ha)", "value": "85.7** %"},
      {"measurement": "plant height 14 days after treatment, % of untreated", "setting": "[1]; dose 4 (4x, 320 g ai/ha)", "value": "94.6** %"},
      {"measurement": "Phytotoxicity Index (0-9) 14 days after treatment", "setting": "[1]; dose 5 (5x, 400 g ai/ha)", "value": 0.8},
      {"measurement": "biomass accumulation 14 days after treatment, % of untreated", "setting": "[1]; dose 5 (5x, 400 g ai/ha)", "value": "74.3** %"},
      {"measurement": "plant height 14 days after treatment, % of untreated", "setting": "[1]; dose 5 (5x, 400 g ai/ha)", "value": "85.4** %"},
      {"measurement": "Phytotoxicity Index (0-9) 14 days after treatment", "setting": "[1]; dose 6 (6x, 480 g ai/ha)", "value": 1.2},
      {"measurement": "biomass accumulation 14 days after treatment, % of untreated", "setting": "[1]; dose 6 (6x, 480 g ai/ha)", "value": "69.9** %"},
      {"measurement": "plant height 14 days after treatment, % of untreated", "setting": "[1]; dose 6 (6x, 480 g ai/ha)", "value": "81.2** %"},
      {"measurement": "height reduction", "setting": "[1]; A122T homozygous, 0.5x", "value": 0.1, "unit": "%"},
      {"measurement": "height reduction", "setting": "[1]; A122T homozygous, 6x", "value": 18.8, "unit": "%"},
      {"measurement": "reduction of biomass weight", "setting": "[1]; A122T homozygous, higher dose (6x)", "value": 25, "unit": "%"},
      {"measurement": "Phytotoxicity Index (0-9) 14 days after treatment", "setting": "[2]; dose 0.5 (0.5x, 40 g ai/ha)", "value": 0},
      {"measurement": "biomass accumulation 14 days after treatment, % of untreated", "setting": "[2]; dose 0.5 (0.5x, 40 g ai/ha)", "value": 95.0, "unit": "%"},
      {"measurement": "plant height 14 days after treatment, % of untreated", "setting": "[2]; dose 0.5 (0.5x, 40 g ai/ha)", "value": 99.5, "unit": "%"},
      {"measurement": "Phytotoxicity Index (0-9) 14 days after treatment", "setting": "[2]; dose 1 (1x, 80 g ai/ha)", "value": 0},
      {"measurement": "biomass accumulation 14 days after treatment, % of untreated", "setting": "[2]; dose 1 (1x, 80 g ai/ha)", "value": 89.6, "unit": "%"},
      {"measurement": "plant height 14 days after treatment, % of untreated", "setting": "[2]; dose 1 (1x, 80 g ai/ha)", "value": 99.5, "unit": "%"},
      {"measurement": "Phytotoxicity Index (0-9) 14 days after treatment", "setting": "[2]; dose 2 (2x, 160 g ai/ha)", "value": 1.8},
      {"measurement": "biomass accumulation 14 days after treatment, % of untreated", "setting": "[2]; dose 2 (2x, 160 g ai/ha)", "value": 75.5, "unit": "%"},
      {"measurement": "plant height 14 days after treatment, % of untreated", "setting": "[2]; dose 2 (2x, 160 g ai/ha)", "value": 78.6, "unit": "%"},
      {"measurement": "Phytotoxicity Index (0-9) 14 days after treatment", "setting": "[2]; dose 3 (3x, 240 g ai/ha)", "value": 6.4},
      {"measurement": "biomass accumulation 14 days after treatment, % of untreated", "setting": "[2]; dose 3 (3x, 240 g ai/ha)", "value": 60.4, "unit": "%"},
      {"measurement": "plant height 14 days after treatment, % of untreated", "setting": "[2]; dose 3 (3x, 240 g ai/ha)", "value": 48.4, "unit": "%"},
      {"measurement": "Phytotoxicity Index (0-9) 14 days after treatment", "setting": "[2]; dose 4 (4x, 320 g ai/ha)", "value": 8.0},
      {"measurement": "biomass accumulation 14 days after treatment, % of untreated", "setting": "[2]; dose 4 (4x, 320 g ai/ha)", "value": 46.5, "unit": "%"},
      {"measurement": "plant height 14 days after treatment, % of untreated", "setting": "[2]; dose 4 (4x, 320 g ai/ha)", "value": 28.9, "unit": "%"},
      {"measurement": "Phytotoxicity Index (0-9) 14 days after treatment", "setting": "[2]; dose 5 (5x, 400 g ai/ha)", "value": 8.9},
      {"measurement": "biomass accumulation 14 days after treatment, % of untreated", "setting": "[2]; dose 5 (5x, 400 g ai/ha)", "value": 38.9, "unit": "%"},
      {"measurement": "plant height 14 days after treatment, % of untreated", "setting": "[2]; dose 5 (5x, 400 g ai/ha)", "value": 25.3, "unit": "%"},
      {"measurement": "Phytotoxicity Index (0-9) 14 days after treatment", "setting": "[2]; dose 6 (6x, 480 g ai/ha)", "value": 9.0},
      {"measurement": "biomass accumulation 14 days after treatment, % of untreated", "setting": "[2]; dose 6 (6x, 480 g ai/ha)", "value": 33.9, "unit": "%"},
      {"measurement": "plant height 14 days after treatment, % of untreated", "setting": "[2]; dose 6 (6x, 480 g ai/ha)", "value": 27.1, "unit": "%"},
      {"measurement": "Phytotoxicity Index (0-9) 14 days after treatment", "setting": "sunflower line L2, A205V; dose 0.5 (0.5x, 40 g ai/ha)", "value": 0},
      {"measurement": "biomass accumulation 14 days after treatment, % of untreated", "setting": "sunflower line L2, A205V; dose 0.5 (0.5x, 40 g ai/ha)", "value": 99.2, "unit": "%"},
      {"measurement": "plant height 14 days after treatment, % of untreated", "setting": "sunflower line L2, A205V; dose 0.5 (0.5x, 40 g ai/ha)", "value": 99.2, "unit": "%"},
      {"measurement": "Phytotoxicity Index (0-9) 14 days after treatment", "setting": "sunflower line L2, A205V; dose 1 (1x, 80 g ai/ha)", "value": 0},
      {"measurement": "biomass accumulation 14 days after treatment, % of untreated", "setting": "sunflower line L2, A205V; dose 1 (1x, 80 g ai/ha)", "value": 85.0, "unit": "%"},
      {"measurement": "plant height 14 days after treatment, % of untreated", "setting": "sunflower line L2, A205V; dose 1 (1x, 80 g ai/ha)", "value": 98.1, "unit": "%"},
      {"measurement": "Phytotoxicity Index (0-9) 14 days after treatment", "setting": "sunflower line L2, A205V; dose 2 (2x, 160 g ai/ha)", "value": 3.1},
      {"measurement": "biomass accumulation 14 days after treatment, % of untreated", "setting": "sunflower line L2, A205V; dose 2 (2x, 160 g ai/ha)", "value": 58.1, "unit": "%"},
      {"measurement": "plant height 14 days after treatment, % of untreated", "setting": "sunflower line L2, A205V; dose 2 (2x, 160 g ai/ha)", "value": 63.6, "unit": "%"},
      {"measurement": "Phytotoxicity Index (0-9) 14 days after treatment", "setting": "sunflower line L2, A205V; dose 3 (3x, 240 g ai/ha)", "value": 3.9}
    ]}
  ]
}
